Test results from patent US4906565A, “Method for the selective detection of microbial nucleotides” (Minnesota Mining and Manufacturing Company, priority 1986, dated 1990).
Where “and” joins values, the source holds several entries; their conditions need not be identical. Equal values may be shown once.

Columns and labels:
Type in all cases: biochemical
[1] = test system: glycerokinase; assay: Inhibition of glycerokinase (protection of ATP), bioluminescent ATP assay in buffer; conditions: for RLU 5 min.: 5 min. after glycerol; for RLU 10 min.: 10 min. after glycerol; for RLU 15 min.: 15 min. after glycerol; for RLU 0 min.: before glycerol added
Procedure: Assay: Glycerol was added last to the samples to initiate the enzyme's activity. Before glycerol was added a 50 μl aliquot was taken from all samples. ATP levels in those aliquots (expressed in RLU) were determined as time zero values. Next glycerol was added to the mixtures and further 50 μl aliquots were taken at 5, 10, and 15 minutes. ATP in all aliquots was measured by bioluminescent means as described. Results:
(§1) Assay: Glycerol was added last to the samples to initiate the enzyme's activity. Before glycerol was added a 50 μl aliquot was taken from all samples as time zero. Next glycerol was added to the samples and after 5, 10 and 15 minutes, 50 μl aliquots were again taken. ATP in all aliquots was measured as described.
as §1, with “At” for “Next glycerol was added to the samples and after”, “minutes after addition of glycerol further” for “minutes,”, “taken from the samples.” for “again taken.”

[2] = molecular target: T1, firefly luciferase (Photinus pyralis, UniProt P08659); assay: Effect of inhibitor on the bioluminescent assay of ATP
T1 construct: purchased Lumac/3M Lumit PM
T1 sequence (P08659 whole entry): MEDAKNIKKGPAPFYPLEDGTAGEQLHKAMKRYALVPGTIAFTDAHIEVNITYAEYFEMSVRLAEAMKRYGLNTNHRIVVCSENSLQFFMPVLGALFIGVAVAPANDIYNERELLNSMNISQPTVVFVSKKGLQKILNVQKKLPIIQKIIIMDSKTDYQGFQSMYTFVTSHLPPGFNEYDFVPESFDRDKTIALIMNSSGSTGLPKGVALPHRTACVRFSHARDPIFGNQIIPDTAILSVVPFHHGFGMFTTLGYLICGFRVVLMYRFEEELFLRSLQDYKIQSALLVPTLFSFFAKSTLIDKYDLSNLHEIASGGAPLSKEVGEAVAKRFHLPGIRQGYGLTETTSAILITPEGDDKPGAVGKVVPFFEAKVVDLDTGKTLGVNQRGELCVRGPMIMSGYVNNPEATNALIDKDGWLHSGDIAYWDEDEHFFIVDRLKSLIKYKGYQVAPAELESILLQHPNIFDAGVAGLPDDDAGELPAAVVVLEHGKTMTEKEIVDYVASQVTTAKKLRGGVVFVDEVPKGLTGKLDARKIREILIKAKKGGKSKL
Procedure: Assay: from each sample triplicate 100 μl aliquots were taken. In those aliquots ATP was measured as described.
Assay: from each sample triplicate 100 μl aliquots were taken. ATP in those aliquots was measured as described.
Assay: From each sample triplicate 100 μl aliquots were taken and ATP was measured as described.
Protocol: Eight samples were prepared using materials described above and previously, as shown in TABLE 7-1 and incubated for various periods of time (i.e., 0, 5, 10 and […]) before aliquots were taken and assayed as described.
Protocol: Increasing concentrations of hexokinase, with and without PCMPSA were prepared according to TABLE 8-1 using materials described above and previously.

[3] = molecular target: T1, firefly luciferase; assay: as above; conditions: for RLU mean / RLU, triplicate aliquots 1, 2, 3: no kinase
[4] = PCMB 0.01 mM, glycerokinase 1.6 U/ml
[5] = PCMB 0.05 mM, glycerokinase 1.6 U/ml
[6] = PCMB 0.1 mM, glycerokinase 1.6 U/ml
[7] = PCMB 0.5 mM, glycerokinase 1.6 U/ml
[8] = PCMB 1 mM, glycerokinase 1.6 U/ml
[9] = PCMB 2 mM, glycerokinase 1.6 U/ml
[10] = PCMB 0.01 mM, ATP in buffer, no kinase
[11] = DNFB 0.0827 mM, ATP in Lumit buffer
[12] = DNFB 0.827 mM, ATP in Lumit buffer
[13] = DNFB 8.27 mM, ATP in Lumit buffer

CCN1C(=O)C=CC1=O [NEM, N-ethylmaleimide]
RLU 5 min. ([1]; NEM 4.10 mM, glycerokinase): 7275 RLU | RLU 10 min. ([1]; NEM 4.10 mM, glycerokinase): 6398 RLU | RLU 15 min. ([1]; NEM 4.10 mM, glycerokinase): 5922 RLU | RLU 0 min. ([1]; NEM 4.10 mM, glycerokinase): 7635 RLU | RLU 5 min. ([1]; NEM 8.14 mM, glycerokinase): 7130 RLU | RLU 10 min. ([1]; NEM 8.14 mM, glycerokinase): 6623 RLU | RLU 15 min. ([1]; NEM 8.14 mM, glycerokinase): 6365 RLU | RLU 0 min. ([1]; NEM 8.14 mM, glycerokinase): 7742 RLU | RLU 5 min. ([1]; NEM 12.1 mM, glycerokinase): 7413 RLU | RLU 10 min. ([1]; NEM 12.1 mM, glycerokinase): 6812 RLU | RLU 15 min. ([1]; NEM 12.1 mM, glycerokinase): 6997 RLU | RLU 0 min. ([1]; NEM 12.1 mM, glycerokinase): 7660 RLU | RLU 5 min. ([1]; NEM 19.8 mM, glycerokinase): 7138 RLU | RLU 10 min. ([1]; NEM 19.8 mM, glycerokinase): 6547 RLU | RLU 15 min. ([1]; NEM 19.8 mM, glycerokinase): 6820 RLU | RLU 0 min. ([1]; NEM 19.8 mM, glycerokinase): 7406 RLU | RLU 5 min. ([1]; NEM 16. mM, glycerokinase): 7192 RLU | RLU 10 min. ([1]; NEM 16. mM, glycerokinase): 7002 RLU | RLU 15 min. ([1]; NEM 16. mM, glycerokinase): 6962 RLU | RLU 0 min. ([1]; NEM 16. mM, glycerokinase): 7199 RLU | inhibition of glycerokinase (conclusion in words) ([1]; each NEM concentration tested (4.10-19.8 mM)): seems to be inhibited | % of control ([2]; NEM 19.8 mM, control = 0 mM NEM): 86.3% | RLU mean ([3]; NEM 4.10 mM, ATP in buffer): 14410 RLU | RLU, triplicate aliquots 1, 2, 3 ([3]; NEM 4.10 mM, ATP in buffer): 14387 RLU and 14794 RLU and 14051 RLU | % of control ([3]; NEM 4.10 mM, control = 0 mM NEM): 97.6% | RLU mean ([3]; NEM 8.14 mM, ATP in buffer): 14608 RLU | RLU, triplicate aliquots 1, 2, 3 ([3]; NEM 8.14 mM, ATP in buffer): 14401 RLU and 14667 RLU and 14756 RLU | % of control ([3]; NEM 8.14 mM, control = 0 mM NEM): 99.0% | RLU mean ([3]; NEM 12.1 mM, ATP in buffer): 13737 RLU | RLU, triplicate aliquots 1, 2, 3 ([3]; NEM 12.1 mM, ATP in buffer): 14139 RLU and 13794 RLU and 13279 RLU | % of control ([3]; NEM 12.1 mM, control = 0 mM NEM): 93.1% | RLU mean ([3]; NEM 16.0 mM, ATP in buffer): 13212 RLU | RLU, triplicate aliquots 1, 2, 3 ([3]; NEM 16.0 mM, ATP in buffer): 12750 RLU and 13438 RLU and 13448 RLU | % of control ([3]; NEM 16.0 mM, control = 0 mM NEM): 89.5% | RLU mean ([3]; NEM 19.8 mM, ATP in buffer): 12747 RLU | RLU, triplicate aliquots 1, 2, 3 ([3]; NEM 19.8 mM, ATP in buffer): 13534 RLU and 12596 RLU and 12111 RLU | RLU mean ([3]; NEM .414 mM, ATP in buffer): 14962 RLU | RLU, triplicate aliquots 1, 2, 3 ([3]; NEM .414 mM, ATP in buffer): 15071 RLU and 15081 RLU and 14735 RLU | % of control ([3]; NEM .414 mM, control = 0 mM NEM): 101.4% | interference with the bioluminescent assay of ATP (conclusion in words) ([3]; NEM concentrations of Example 5): interferes only moderately, if at all

O=C(O)c1cc[c]([Hg][Cl])cc1 [PCMB, p-chloromercuribenzoic acid]
RLU 5 min. [1, 4]: 9121 RLU | RLU 10 min. [1, 4]: 8982 RLU | RLU 15 min. [1, 4]: 3913 RLU | RLU 0 min. [1, 4]: 9065 RLU | RLU 5 min. [1, 5]: 9048 RLU | RLU 10 min. [1, 5]: 8727 RLU | RLU 15 min. [1, 5]: 9049 RLU | RLU 0 min. [1, 5]: 9003 RLU | RLU 5 min. [1, 6]: 9560 RLU | RLU 10 min. [1, 6]: 9253 RLU | RLU 15 min. [1, 6]: 9421 RLU | RLU 0 min. [1, 6]: 9499 RLU | RLU 5 min. [1, 7]: 8800 RLU | RLU 10 min. [1, 7]: 8617 RLU | RLU 15 min. [1, 7]: 9028 RLU | RLU 0 min. [1, 7]: 9041 RLU | RLU 5 min. [1, 8]: 9437 RLU | RLU 10 min. [1, 8]: 9329 RLU | RLU 15 min. [1, 8]: 9591 RLU | RLU 0 min. [1, 8]: 8802 RLU | RLU 5 min. [1, 9]: 7245 RLU | RLU 10 min. [1, 9]: 7905 RLU | RLU 15 min. [1, 9]: 7568 RLU | RLU 0 min. [1, 9]: 7987 RLU | inhibition of glycerokinase (conclusion in words) ([1]; PCMB final concentration 0.01 mM): sufficiently inhibited | inhibition of glycerokinase (conclusion in words) ([1]; PCMB, Samples 1-6 (0.01-2 mM)): very effective inhibitor of glycerokinase | RLU mean [2, 10]: 17887 RLU | RLU, triplicate aliquots 1, 2, 3 [2, 10]: 17959 RLU and 18219 RLU and 17484 RLU | % of control ([2]; PCMB 0.01 mM, control = 0 mM PCMB): 97% | interference with the bioluminescent assay (conclusion in words) ([2]; PCMB 0.01-1mM): do not significantly interfere | RLU, triplicate aliquots 1, 2, 3 ([2]; PCMB 10 mM, ATP in buffer, no kinase): 11 RLU and 10 RLU | RLU mean ([3]; PCMB 0.05 mM, ATP in buffer): 17508 RLU | RLU, triplicate aliquots 1, 2, 3 ([3]; PCMB 0.05 mM, ATP in buffer): 17984 RLU and 17423 RLU and 17118 RLU | % of control ([3]; PCMB 0.05 mM, control = 0 mM PCMB): 95% | RLU mean ([3]; PCMB 0.1 mM, ATP in buffer): 18246 RLU | RLU, triplicate aliquots 1, 2, 3 ([3]; PCMB 0.1 mM, ATP in buffer): 17914 RLU and 18720 RLU and 18505 RLU | % of control ([3]; PCMB 0.1 mM, control = 0 mM PCMB): 99% | RLU mean ([3]; PCMB 0.5 mM, ATP in buffer): 18142 RLU | RLU, triplicate aliquots 1, 2, 3 ([3]; PCMB 0.5 mM, ATP in buffer): 18190 RLU and 18413 RLU and 17824 RLU | % of control ([3]; PCMB 0.5 mM, control = 0 mM PCMB): 99% | RLU mean ([3]; PCMB 1 mM, ATP in buffer): 13696 RLU | RLU, triplicate aliquots 1, 2, 3 ([3]; PCMB 1 mM, ATP in buffer): 14576 RLU and 13556 RLU and 12956 RLU | % of control ([3]; PCMB 1 mM, control = 0 mM PCMB): 75% | RLU mean ([3]; PCMB 5 mM, ATP in buffer): 10 RLU | RLU, triplicate aliquots 1, 2, 3 ([3]; PCMB 5 mM, ATP in buffer): 11 RLU and 10 RLU and 9 RLU | % of control ([3]; PCMB 5 mM, control = 0 mM PCMB): < 1% | RLU mean ([3]; PCMB 10 mM, ATP in buffer): 10 RLU | % of control ([3]; PCMB 10 mM, control = 0 mM PCMB): < 1%

O=[N+]([O-])c1ccc(F)c([N+](=O)[O-])c1 [DNFB]
inhibition of glycerokinase (conclusion in words) ([1]; 0.0827 mM DNFB): not effectively inhibited | inhibition of glycerokinase (conclusion in words) ([1]; 0.27 mM DNFB (so in the source)): effectively inhibited | inhibition of glycerokinase (conclusion in words) ([1]; 8.27 mM DNFB (so in the source)): moderately inhibited | RLU 5 min. ([1]; DNFB 0.0827 mM, glycerokinase): 11 RLU | RLU 10 min. ([1]; DNFB 0.0827 mM, glycerokinase): 11 RLU | RLU 15 min. ([1]; DNFB 0.0827 mM, glycerokinase): 18 RLU | RLU 0 min. ([1]; DNFB 0.0827 mM, glycerokinase): 7025 RLU | RLU 5 min. ([1]; DNFB 0.827 mM, glycerokinase): 1585 RLU | RLU 10 min. ([1]; DNFB 0.827 mM, glycerokinase): 1498 RLU | RLU 15 min. ([1]; DNFB 0.827 mM, glycerokinase): 1618 RLU | RLU 0 min. ([1]; DNFB 0.827 mM, glycerokinase): 7402 RLU | RLU 5 min. ([1]; DNFB 8.27 mM, glycerokinase): 7785 RLU | RLU 10 min. ([1]; DNFB 8.27 mM, glycerokinase): 7965 RLU | RLU 15 min. ([1]; DNFB 8.27 mM, glycerokinase): 7968 RLU | RLU 0 min. ([1]; DNFB 8.27 mM, glycerokinase): 8002 RLU | % of control ([2]; DNFB 0.0827 mM, control = ethanol, 0 mM DNFB): 106% | interference with the bioluminescent assay of ATP by firefly luciferase (conclusion in words) ([2]; DNFB concentrations of Example 3): does not interfere | RLU mean [3, 11]: 15429 RLU | RLU, triplicate aliquots 1, 2, 3 [3, 11]: 15157 RLU and 15625 RLU and 15507 RLU | RLU mean [3, 12]: 15914 RLU | RLU, triplicate aliquots 1, 2, 3 [3, 12]: 16060 RLU and 15753 RLU and 15929 RLU | % of control ([3]; DNFB 0.827 mM, control = ethanol, 0 mM DNFB): 110% | RLU mean [3, 13]: 14784 RLU | RLU, triplicate aliquots 1, 2, 3 [3, 13]: 14498 RLU and 14780 RLU and 15076 RLU | % of control ([3]; DNFB 8.27 mM, control = ethanol, 0 mM DNFB): 102.2%
